Laboratory results: patent US8865751B2, “Thiazoles, imidazoles, and pyrazoles useful as inhibitors of protein kinases” (Vertex Pharmaceuticals Incorporated, priority 2006, dated 2014)
Where two headings read alike, the source gives them in different places.

Columns and labels:
[1] = Solubility under the Lck assay conditions; format: physicochemical; settings: Lck assay buffer conditions
human Src kinase = human Src kinase (Homo sapiens, UniProt P12931); experiment: Src inhibition assay (spectrophotometric coupled-enzyme assay); format: biochemical; settings: 25 nM Src, 100 μM ATP, poly Glu,Tyr (4:1), 30° C.
Sequence of human Src kinase (P12931 whole entry): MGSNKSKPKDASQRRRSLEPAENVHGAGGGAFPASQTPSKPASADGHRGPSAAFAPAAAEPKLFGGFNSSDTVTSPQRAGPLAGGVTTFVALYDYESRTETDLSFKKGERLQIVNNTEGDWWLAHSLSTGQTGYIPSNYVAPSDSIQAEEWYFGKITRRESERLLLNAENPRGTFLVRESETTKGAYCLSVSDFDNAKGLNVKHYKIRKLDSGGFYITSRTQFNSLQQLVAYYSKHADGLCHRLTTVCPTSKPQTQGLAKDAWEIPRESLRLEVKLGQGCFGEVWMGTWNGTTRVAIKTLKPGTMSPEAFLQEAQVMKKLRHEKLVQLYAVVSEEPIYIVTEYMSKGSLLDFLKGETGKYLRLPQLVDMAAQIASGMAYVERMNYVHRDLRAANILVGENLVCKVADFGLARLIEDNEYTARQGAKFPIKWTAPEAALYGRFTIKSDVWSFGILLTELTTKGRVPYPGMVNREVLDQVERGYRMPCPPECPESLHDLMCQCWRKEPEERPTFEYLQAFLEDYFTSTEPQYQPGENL
Method: The compounds are evaluated as inhibitors of human Src kinase using a spectrophotometric assay.
An assay buffer solution was prepared which consisted of 25 mM HEPES (pH 7.5), 10 mM MgCl2, 250 μM NADH, 3 mM phosphoenolpyruvate, 60 μg/mL pyruvate kinase, 21 μg/mL lactate dehydrogenase, 113 μM ATP and 28 nM Src. To 60 μL of this solution, in a 96 well plate, was added 2 μL of test compound stock solution in DMSO and the mixture allowed to equilibrate for 10 mins at 30° C. The enzyme reaction was initiated by the addition of 5 μL 10 mg/mL poly Glu, Tyr (4:1) prepared in 25 mM HEPES (pH 7.5). Final assay concentrations of Src and ATP were 25 nM and 100 μM respectively. Initial rate data was determined from the rate of change of absorbance at 340 nm (corresponding to stoichiometric consumption of NADH) using a Molecular Devices Spectramax plate reader (Sunnyvale, Calif.) over 10 mins at 30° C. For each Ki determination 8 data points covering the test compound concentration range of 0-7.5 μM were obtained in duplicate. Ki values were calculated from initial rate data by non-linear regression using the Prism software package (Prism 4.0a, Graphpad Software, San Diego, Calif.).

human Lck kinase = human Lck kinase (Homo sapiens, UniProt P06239); experiment: Lck inhibition assay (spectrophotometric coupled-enzyme assay); format: biochemical
Sequence of human Lck kinase (P06239 whole entry): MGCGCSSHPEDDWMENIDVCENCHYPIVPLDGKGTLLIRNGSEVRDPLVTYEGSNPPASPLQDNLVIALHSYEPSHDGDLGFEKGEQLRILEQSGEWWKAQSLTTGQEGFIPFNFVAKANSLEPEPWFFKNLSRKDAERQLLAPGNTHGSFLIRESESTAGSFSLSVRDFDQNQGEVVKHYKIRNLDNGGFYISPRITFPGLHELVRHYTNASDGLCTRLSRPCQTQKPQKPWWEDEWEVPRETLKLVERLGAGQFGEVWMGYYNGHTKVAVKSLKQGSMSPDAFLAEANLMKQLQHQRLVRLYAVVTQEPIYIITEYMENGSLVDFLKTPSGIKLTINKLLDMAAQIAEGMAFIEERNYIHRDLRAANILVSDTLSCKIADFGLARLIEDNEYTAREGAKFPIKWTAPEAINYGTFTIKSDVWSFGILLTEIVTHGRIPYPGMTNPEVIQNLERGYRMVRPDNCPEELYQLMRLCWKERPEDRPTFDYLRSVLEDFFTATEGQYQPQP
Method: The compounds are evaluated as inhibitors of human Lck kinase using a spectrophotometric assay.
An assay buffer solution was prepared which consisted of 25 mM HEPES (pH 7.5), 10 mM MgCl2, 250 μM NADH, 3 mM phosphoenolpyruvate, 43 μg/mL pyruvate kinase, 14 μg/mL lactate dehydrogenase, 560 μM ATP and 67 nM Lck. To 60 μL of this solution, in a 96 well plate, was added 2 μL of test compound stock solution in DMSO and the mixture allowed to equilibrate for 10 minutes at 30° C. The enzyme reaction was initiated by the addition of 5 μL 15 mg/mL poly Glu, Tyr (4:1) prepared in 25 mM HEPES (pH 7.5). Final assay concentrations of Lck and ATP are 60 nM and 500 μM respectively. Initial rate data was determined from the rate of change of absorbance at 340 nm (corresponding to stoichiometric consumption of NADH) using a Molecular Devices Spectramax plate reader (Sunnyvale, Calif.) over 10 min at 30° C. For each Ki determination 8 data points covering the test compound concentration range of 0-7.5 μM are obtained in duplicate. Ki values are calculated from initial rate data by non-linear regression using the Prism software package (Prism 4.0a, Graphpad Software, San Diego, Calif.).

[2] = 60 nM Lck, 500 μM ATP, poly Glu,Tyr (4:1), 30° C., read-out: Ki value, inhibition of Lck

solubility under the assay conditions [1] | Ki (human Src kinase) [nM] | Ki (human Lck kinase; read-out: Ki value, inhibition of Lck (expected)) [nM] | Ki (human Lck kinase; [2]) [nM] | Compound
relatively low | > 1000 | < 1000 | – | NC(=O)c1sc(C2CCCCC2)nc1-c1ccc(Oc2ccccc2)cc1 [Compound I-4]
– | > 1000 | – | 100 to 500 | NC(=O)c1sc(C2CCCC2)nc1-c1ccc(Oc2ccccc2)cc1 [Compound I-3, 2-Cyclopentyl-4-(4-phenoxyphenyl)thiazole-5-carboxamide]
– | > 1000 | – | 100 to 500 | NC(=O)c1cn(C2CCCC2)nc1-c1ccc(Oc2ccccc2)cc1 [Compound I-2, 1-Cyclopentyl-3-(4-phenoxyphenyl)-1H-pyrazole-4-carboxamide]
– | 100 to 500 | – | < 100 | NC(=O)c1[nH]c(C2CCCC2)nc1-c1ccc(Oc2ccccc2)cc1 [Compound I-1]
